Assay [1] concerns patients with symptomatic obstructive HCM (oHCM). The assay can be described thus: Phase 2 trial in oHCM, Cohorts 1 and 2: echocardiography, NYHA class, biomarkers. Type of assay: in vivo, human. The note with it: for Average ejection fraction: at 10 weeks. The source says: Cohort 3 included patients receiving disopyramide.
Since patient characteristics vary substantially in this disease, individualized dose titration to a pharmacodynamics (PD) response (reduction of the LVOT-G to <30 mmHg with preservation of LVEF>50%) was employed to maximize efficacy and safety.
Body weight was ≥45 kg at screening; 4. […] Adequate acoustic windows for echocardiography; 6. Had LVOT-G during screening as follows for Cohorts 1 and 2: (a) resting gradient≥50 mmHg; or (b) resting gradient≥30 mmHg and <50 mmHg with post-Valsalva LVOT-G≥50 mmHg; or as follows for Cohort 3: persistent resting LVOT obstruction (≥30 mmHg) and provoked LVOT obstruction (≥50 mmHg); 7. Left ventricular ejection fraction (LVEF)≥60% at screening; 8. […] Able to complete all screening procedures; and 13. Taking stable doses of disopyramide for >4 weeks prior to screening (Cohort 3 only).
Aortic stenosis or fixed subaortic obstruction; 2. […] Has been treated with septal reduction therapy (surgical myectomy or percutaneous alcohol septal ablation) or has plans for either treatment during the study period; 6. […] Hemoglobin<10.0 g/dL at screening; 18. […] Has received prior treatment with CK-3773274 or is currently receiving mavacamten; 21.
Patients up-titrated to Dose 2 if either of the following conditions were met on echocardiography: (1) resting LVOT-G≥30 mmHg and the biplane LVEF≥50%; or (2) resting LVOT-G<30 mmHg, post-Valsalva LVOT-G≥50 mmHg, and the biplane LVEF≥50%. Otherwise, the patient remains on Dose 1. If LVEF is <50% at Week 2, the patient was down-titrated to placebo.
Patients were escalated to the next higher dose if either of the following conditions were met on echocardiography: (1) resting LVOT-G≥30 mmHg and the biplane LVEF≥50%; or (2) resting LVOT-G<30 mmHg, post-Valsalva LVOT-G≥50 mmHg, and the biplane LVEF≥50%. Otherwise, the patient remained on the same dose. If LVEF was <50% at Week 4, the patient was returned to a prior dose level or to placebo if the patient was on Dose 1.
Echocardiograms obtained every 2 weeks and 2 weeks after the last dose were analyzed for several key structural and physiologic metrics and N-terminal prohormone of brain natriuretic peptide (NT-proBNP).
Initial results from the clinical study included data from two sequentially conducted cohorts, Cohort 1 (n=21) and Cohort 2 (n=20) which randomized treatment of patients 2:1 to CK-274 or placebo. […] Overall, treatment duration for each patient in the study was 10 weeks with an echocardiogram conducted 2 weeks after the last dose.

Assay [2] has as its system patients with symptomatic oHCM. The assay can be described thus: Open-label extension trial in oHCM: LVOT-G, LVEF, NYHA class, KCCQ. The class given is in vivo, human. From the text: An open-label extension clinical trial of CK-274 in patients with symptomatic oHCM was initiated.
Patients who completed the study as described in Example 2 and had not developed atrial fibrillation were eligible to enroll in the study. Echo-guided dose titration based on site reads was managed by the investigator and could occur at any time during the trial, as described below.
Each patient received Dose 1 of CK-274 once daily for 2 weeks. […] Patients were up-titrated to Dose 2 if either of the following conditions were met on echocardiography: (1) resting LVOT-G≥30 mmHg and the biplane LVEF≥50%; or (2) resting LVOT-G<30 mmHg, post-Valsalva LVOT-G≥50 mmHg, and the biplane LVEF≥50%. Otherwise, the patient remained on 5 mg of CK-274. If LVEF was […], treatment was discontinued. If LVEF was <40%, treatment is interrupted.
Ambulatory cardiac monitoring is performed on weeks 48, 96, 144, 192 and 240. Cardiac magnetic resonance is monitored at weeks 48, 144 and 240. (See FIG. 26).
Change in KCCQ scores from baseline, including OSS=overall summary score, CSS=clinical summary score, TSS=total symptom score, PLS=physical limitation score, SLS=social limitation score, QoL=quality of life, were determined. Patients were categorized with worsened (≤−5 points), unchanged (−5 to <5 points), small improvement (5 to <10 points), moderate to large improvement (10 to <20 points), and large to very large improvement (≥20 points) relative to baseline.

In the case of `CCc1nc(-c2ccc3c(c2)CC[C@H]3NC(=O)c2cnn(C)c2)no1` [aficamten, (R)—N-(5-(5-ethyl-1,2,4-oxadiazol-3-yl)-2,3-dihydro-1H-inden-1-yl)-1-methyl-1H-pyrazole-4-carboxamide], the “Patients with complete hemodynamic response / target goal (resting gradient <30 mmHg and post-Valsalva gradient <50 mmHg)” value in assay [1] (Cohort 1 (5, 10, 15 mg), Week 10, 11 out of 14) is recorded as 79%. The compound also had an Average ejection fraction in assay [1] (Cohort 1 (n=14), baseline 72.8 (73±6)) of 67±9%. In addition, the “Patients with complete hemodynamic response / target goal (resting gradient <30 mmHg and post-Valsalva gradient <50 mmHg)” value in assay [1] (Cohort 2 (10, 20, 30 mg), Week 10, 13 out of 14) was found to be 93%. Besides, the Average ejection fraction in assay [1] (Cohort 2 (n=14), baseline 75.4 (75±6)) was found to be 64±8%. For the same compound, in assay [1] (Cohorts 1 and 2), the “Patients converted from NYHA class III to class II or I” value is reported as 7 patients, the “Time of occurrence of reductions in LVOT-G after initiating treatment” value is given as “within two weeks” and the “Time of peak reduction in LVOT-G” value was “within two to six weeks of the end of dose titration”. The “Patients who improved from NYHA class III to I” value in assay [1] (pooled aficamten Cohorts 1 and 2) is on record as “one”. For the same compound, the “LVMI mean difference vs placebo” value in assay [1] (week 10, p=0.063) is reported as 8.1 g/m^2. Also, in assay [2] (Week 24), the “Participants with very large clinical improvements (≥20 points) in KCCQ” value is on record as 40.0%. The “LVOT gradients (resting and Valsalva) over time” value in assay [2] (Weeks 2-24, site reads) is “significant and sustained reduction”. Moreover, in assay [2] (open-label extension), the “Patients with worsening in NYHA class from baseline” value is recorded as “No patients”. The LVEF over time entry in assay [2] (through Week 24) was “minimal and stable reductions”.

Source of the values: patent US20250177357A1, “METHODS FOR TREATING HYPERTROPHIC CARDIOMYOPATHY” (priority 2021, published 2025).
